Laboratory results as given in article PMC8020795 (Proceedings of the National Academy of Sciences of the …, 2021).
“Also recorded” adds a separate entry of the source.

Legend:
[1] = Non-GLP 14-d repeated dose toxicology; type: in vivo
[2] = system: orthotopic HCA-1 tumors; experiment: Orthotopic HCA-1 HCC model; type: in vivo, C3H mice; conditions: for Overall survival: n = 8
Description: (§1) In vivo hepatocellular carcinoma treatment studies […]
(§2) mouse PD-1 (200 µg/mouse; BioXcell, BE0146). The therapeutic efficacy and the changes in immune cells were analyzed after two weeks of treatment. The tumor volume was calculated with the following formula: volume = width × length × height/2. […]
Hematoxylin and Eosin staining
Lung tissue was cut into small pieces and fixed in 4% PFA (in PBS) overnight before being embedded in paraffin wax. The sections were then stained with hematoxylin and eosin (H&E) and observed with an inverted microscope (IX83, Olympus, Japan).
HCA-1 tumor-bearing mice were anesthetized, perfused via intracardiac injection with PBS and then sacrificed. Tumor tissues were collected and harvested in enzyme-containing DMEM cell culture medium (1.5 mg/mL of collagenase type 1A and hyaluronidase; Sigma).
The tissues were cut and ground into smaller pieces and then digested for 1 h at 37 °C to form suspensions of single tumor cells. The suspensions were filtered through a 70-µm cell strainer (Corning, Manassas, VA), and the cells were then incubated with rat anti-mouse CD16/CD32 mAbs to block Fc receptors. After washing 3 times and resuspending in cold flow buffer (1% BSA, 0.1% NaN3 in PBS), the single-cell suspensions were incubated with monoclonal anti-mouse F4/80-PE (eBiosciences, San Diego, CA), 7-AAD, CD3e-APC, CD8a-PE-Cy7, CD45-FITC, CD4-PE (BD Biosciences, East Rutherford, NJ), CD86-APC-

[3] = system: orthotopic JHH-7 tumors; experiment: Orthotopic JHH-7 HCC model; type: in vivo, nude mice; conditions: combination with sorafenib (40 mg/kg/d, oral); BPRCX807 15 mg/kg/d SC minipump
Description: as §1, §2

[4] = target: T1, hERG (human K+ channel) (Homo sapiens, UniProt Q12809); experiment: hERG patch-clamp assay (hERG-CHO, automated patch-clamp); type: cell-based
T1 construct: host or cells: CHO (hERG-CHO)
T1 sequence (Q12809 whole entry): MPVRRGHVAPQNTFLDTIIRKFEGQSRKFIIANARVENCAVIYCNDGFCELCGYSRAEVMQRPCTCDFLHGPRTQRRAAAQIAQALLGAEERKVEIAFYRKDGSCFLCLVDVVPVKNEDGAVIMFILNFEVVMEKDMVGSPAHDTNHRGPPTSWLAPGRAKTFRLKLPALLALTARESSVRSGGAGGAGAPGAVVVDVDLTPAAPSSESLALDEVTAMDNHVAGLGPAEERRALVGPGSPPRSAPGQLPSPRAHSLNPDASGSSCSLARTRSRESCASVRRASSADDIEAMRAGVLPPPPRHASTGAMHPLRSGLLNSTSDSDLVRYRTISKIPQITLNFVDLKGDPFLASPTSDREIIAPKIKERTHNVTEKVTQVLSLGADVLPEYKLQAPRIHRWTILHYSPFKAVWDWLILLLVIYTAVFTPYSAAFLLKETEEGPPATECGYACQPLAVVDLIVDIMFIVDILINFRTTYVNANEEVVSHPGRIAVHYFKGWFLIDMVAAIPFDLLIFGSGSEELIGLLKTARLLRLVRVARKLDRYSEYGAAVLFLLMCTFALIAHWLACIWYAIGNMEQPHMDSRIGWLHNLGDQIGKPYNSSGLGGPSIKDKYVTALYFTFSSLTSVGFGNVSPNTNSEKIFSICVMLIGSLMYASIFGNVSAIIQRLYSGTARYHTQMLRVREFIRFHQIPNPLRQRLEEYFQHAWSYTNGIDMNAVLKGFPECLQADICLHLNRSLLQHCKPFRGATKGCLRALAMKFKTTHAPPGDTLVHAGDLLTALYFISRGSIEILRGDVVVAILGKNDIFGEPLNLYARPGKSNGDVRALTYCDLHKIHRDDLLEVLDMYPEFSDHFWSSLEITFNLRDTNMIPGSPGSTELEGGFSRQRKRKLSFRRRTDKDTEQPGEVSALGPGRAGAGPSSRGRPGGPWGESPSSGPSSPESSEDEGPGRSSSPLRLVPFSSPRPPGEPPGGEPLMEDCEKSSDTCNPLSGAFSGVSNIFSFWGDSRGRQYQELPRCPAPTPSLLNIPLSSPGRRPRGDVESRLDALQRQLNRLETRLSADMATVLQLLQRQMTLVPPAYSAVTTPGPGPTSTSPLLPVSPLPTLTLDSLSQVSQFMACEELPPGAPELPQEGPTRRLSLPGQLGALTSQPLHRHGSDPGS
Source text: (§3) page 16: Table: List of genes examined by real-time PCR and the primer sequences used. Genes Forward primers Reverse primers Slug [NT] Fn1 [NT] Cdh2 […] Foxc2 [NT] Zeb1 [NT] Zeb2 [NT] Twist1 [NT] Cdh1 [NT] Mta3 [NT] Cldn3 [NT] Cldn5 [NT] β-actin […] [NT] Off-target standard assays Methods employed in this study have been adapted from the scientific literature to maximize reliability and reproducibility. Reference standards were run as an integral part of each assay to ensure the validity of the results obtained. Radioligand binding Assays were performed under conditions described in the accompanying "Methods" section of this report by Eurofins Panlabs, Inc (Taipei, Taiwan, ROC). hERG patch-clamp assay BPRCX807 were tested in the hERG (hERG-CHO, automated patch-clamp) assay and determined at Eurofins Panlabs (Missouri, USA). The experiment was accepted in accordance with Eurofins validation Standard Operating Procedure. Selectivity Screening of various chemokine receptors The results were performed by Eurofins DiscoverX (Fremont, California, USA). The S15

[5] = target: T2, hERG (Homo sapiens, UniProt Q12809); experiment: as above; type: cell-based; conditions: human, CHO cells that express hERG
T2 construct: host or cells: CHO (hERG-CHO)
T2 sequence (Q12809 whole entry): as above
Source text: as §3

[6] = in vivo; conditions: ICR, mouse, sc
[7] = alone or combined with sorafenib

SMILES: Cc1cc(NC2CCN(C(=O)CCNCC(=O)O)CC2)nc(NCc2nc(CCCNCCCNC3CCCCC3)co2)n1 [BPRCX807]
- Survival in repeated dose toxicology ([1]; SD rats, 50 mg/kg/d, 14 d): all animals survived up to study termination
- Non-GLP 14-d repeated dose, overall finding ([1]; rat, in vivo): Clean
- Hematological and biochemical data vs vehicle ([1]; rat, in vivo, 50 mg/kg/day): no significant difference
- Major organs (heart, lung, kidney, liver) vs vehicle ([1]; rat, in vivo, 50 mg/kg/day): normal in size, weight, and color
- Adrenal Glands/B.W. ([1]; rat, in vivo, sc, 50 mg/kg): 0.0002 ± 0.00003
- Albumin (ALB) ([1]; rat, in vivo, sc, 50 mg/kg): 4.0 ± 0.2 g/dL
- Alkaline Phosphatase (ALP) ([1]; rat, in vivo, sc, 50 mg/kg): 901 ± 60 U/L
- Basophil ([1]; rat, in vivo, sc, 50 mg/kg): 0.002 ± 0.004 103/µL
- Basophil % ([1]; rat, in vivo, sc, 50 mg/kg): 0.01 ± 0.02%
- Blood Urea Nitrogen (BUN) ([1]; rat, in vivo, sc, 50 mg/kg): 16.7 ± 2.1 mg/dL
- Creatinine (CRE) ([1]; rat, in vivo, sc, 50 mg/kg): 0.22 ± 0.04 mg/dL
- Eosinophil ([1]; rat, in vivo, sc, 50 mg/kg): 0.01 ± 0.01 103/µL
- Eosinophil % ([1]; rat, in vivo, sc, 50 mg/kg): 0.11 ± 0.05%
- Erythrocyte ([1]; rat, in vivo, sc, 50 mg/kg): 6.33 ± 0.45 106/µL
- Glutamate oxaloacetate transaminase (GOT) ([1]; rat, in vivo, sc, 50 mg/kg): 67 ± 7 U/L
- Glutamate pyruvate transaminase (GPT) ([1]; rat, in vivo, sc, 50 mg/kg): 35 ± 5 U/L
- Heart/B.W. ([1]; rat, in vivo, sc, 50 mg/kg): 0.0038 ± 0.0004
- Hematocrit ([1]; rat, in vivo, sc, 50 mg/kg): 41.4 ± 3.5
- Hemoglobin ([1]; rat, in vivo, sc, 50 mg/kg): 13.8 ± 0.9 g/dL
- Kidneys/B.W. ([1]; rat, in vivo, sc, 50 mg/kg): 0.0095 ± 0.0011
- Lactate dehydrogenase (LDH) ([1]; rat, in vivo, sc, 50 mg/kg): 272 ± 132 U/L
- Liver/B.W. ([1]; rat, in vivo, sc, 50 mg/kg): 0.0460 ± 0.0044
- Lung/B.W. ([1]; rat, in vivo, sc, 50 mg/kg): 0.0054 ± 0.0005
- Lymphocyte ([1]; rat, in vivo, sc, 50 mg/kg): 6.36 ± 3.70 103/µL
- Lymphocyte % ([1]; rat, in vivo, sc, 50 mg/kg): 58.95 ± 6.42%
- Mean corpuscle hemoglobin ([1]; rat, in vivo, sc, 50 mg/kg): 21.8 ± 1.0 pg
- Mean corpuscle volume ([1]; rat, in vivo, sc, 50 mg/kg): 65.4 ± 2.7 fL
- Mean platelet volume ([1]; rat, in vivo, sc, 50 mg/kg): 6.4 ± 0.1 fL
- Monocyte ([1]; rat, in vivo, sc, 50 mg/kg): 0.63 ± 0.36 103/µL
- Monocyte % ([1]; rat, in vivo, sc, 50 mg/kg): 5.82 ± 1.11%
- Neutrophil ([1]; rat, in vivo, sc, 50 mg/kg): 3.75 ± 2.13 103/µL
- Neutrophil % ([1]; rat, in vivo, sc, 50 mg/kg): 35.11 ± 5.51%
- Platelet ([1]; rat, in vivo, sc, 50 mg/kg): 1327± 239 103/µL
- Spleen/B.W. ([1]; rat, in vivo, sc, 50 mg/kg): 0.0021 ± 0.0004
- Testes/B.W. ([1]; rat, in vivo, sc, 50 mg/kg): 0.0094 ± 0.0006
- Thymus/B.W. ([1]; rat, in vivo, sc, 50 mg/kg): 0.0021 ± 0.0006
- White blood cells ([1]; rat, in vivo, sc, 50 mg/kg): 10.75 ± 6.09 103/µL
- Lung metastasis (number of lung nodules) ([2]; BPRCX807 combined with sorafenib, day 24): significantly suppress lung metastasis
- Proportion of M1-like CD86+ TAMs in tumors [2, 7]: increasing the proportion
- Proportion of M2-like CD206+ TAMs in tumors [2, 7]: decreasing
- Tumor size reduction vs. control ([2]; combination of BPRCX807 (15 mg/kg/d SC) with anti–PD-1 (200 μg/mouse IP), day 24): more than 95%
- Lung metastasis ([2]; combination with anti–PD-1): significantly prevented
- Overall survival ([2]; combination with anti–PD-1 vs either alone): significantly prolonged
- Tumor volume reduction ([2]; combination with sorafenib (40 mg/kg/d, oral), BPRCX807 15 mg/kg/d SC minipump): roughly 85%
- Overall survival ([2]; combination with sorafenib vs BPRCX807 (P = 0.0123) or sorafenib (P = 0.0053) alone): significantly extended
- F4/80+ TAMs infiltration into tumor (flow cytometry) ([2]; treatment alone): significantly decreased
- CD8+ T cell infiltration into tumors ([2]; treatment alone, compared to no treatment): moderately increased
- Intratumoral mean vessel density (MVD, CD31+ staining) ([2]; treatment alone, day 24): significantly decrease intratumoral MVD
- Lung metastasis (number of lung nodules) ([2]; treatment alone, day 24): reduced; also recorded: significantly suppress lung metastasis
- Tumor growth ([2]; treatment alone, immunotherapy study, day 24): moderately inhibiting tumor growth
- Tumor volume reduction [3]: ~77%
- IC50 [4]: > 100 µM
- inhibition at 1 µM ([5]; 1 µM): 13.8%
- inhibition at 10 µM ([5]; 10 µM): 9%
- inhibition at 100 µM ([5]; 100 µM): 17.4%
- MTD [6]: 75 mg/kg
